Laboratory results taken from PMC12655351, “Synthesis and Anticancer Activity Evaluation of New 5-((5-Nitrofuran-2-yl)allylidene)-2-thioxo-4-thiazolidinones” (Pharmaceuticals, 2025).
Values belong to the compound of their own block, whether it stands above or below them.

Experiments:
[1] = system: MCF-7; assay: [3H]-thymidine incorporation assay; assay type: cell-based; details: Homo sapiens, MCF7; MCF-7, 24 h of treatment
Procedure: (§1) Another method of assessing the cytotoxic effects of tested compounds, [^3H]-thymidine incorporation assay, was applied. This method provided the capability to analyze the antiproliferative activity of novel structures on MCF-7 and MDA-MB-231 through their ability to incorporate thymidine into the cells. The acquired results further confirmed the potent activity of the 14b compound as the most prominent structure among the novel compounds (Table 2). The test was carried out in triplicate at concentrations of 5, 15, and 30 μM for the MDA-MB-231 cell line and 1, 5, and 10 μM for the MCF-7 cell line.
(§2) Following the selection of cell lines for further study, the effects of all compounds on cell proliferation were evaluated on MCF-7 and MDA-MB-231 cell lines. Cells were seeded in 24-well plates and cultured as described above. Cells were treated with the compounds at concentrations 1, 5, and 10 μM, and 5, 15, and 30 μM for MCF-7 and MDA-MB-231 cell lines, respectively, for 24 h. Subsequently, 0.5 μCi [^3H]-thymidine was added for 4 h at 37 °C. Then, plates with cells were placed on the ice, the liquid was aspirated, and cells were washed twice with 1mL of 0.05 M Tris-HCl buffer comprising 0.11 M NaCl and precipitated by adding 1 mL per well of 5% trichloroacetic. After precipitation, the cells were dissolved with 1 mL of 0.1 M NaOH with 1% SDS (Sigma-Aldrich, St. Louis, MO, USA) at room temperature (RT). The cell lysates were transferred into scintillation vials containing 2 mL of scintillation fluid (Ultima Gold™ XR, PerkinElmer, MA, USA), and cell-associated radioactivity was measured using a Scintillation Counter 1900 TR, TRI-CARB (Packard, Perkin Elmer, Inc., San Jose, CA, USA). The [^3H]-thymidine uptake was expressed as a percentage of the control value.

[2] = system: MDA-MB-231; assay: [3H]-thymidine incorporation assay; assay type: cell-based; details: Homo sapiens; MDA-MB-231, 24 h of treatment
Procedure: as §1, §2

[3] = system: K-562; details: K-562, 48 h
[4] = system: MOLT-4; details: MOLT-4, 48 h
[5] = system: HCT-116; details: HCT-116, 48 h
[6] = system: SF-268; details: SF-268, 48 h
[7] = system: OVCAR-4; details: OVCAR-4, 48 h
[8] = system: TK-10; details: TK-10, 48 h
[9] = system: DU-145; details: DU-145, 48 h
[10] = system: BT-549; details: BT-549, 48 h
[11] = system: Leukemia; details: Leukemia subpanel
[12] = system: Non-small cell lung cancer; details: Non-small cell lung cancer subpanel
[13] = system: SR; assay: cells; details: Homo sapiens, 48 h
[14] = system: SK-MEL-5; assay: cells; details: Homo sapiens, SK-MEL-5, 48 h; for CC50: read-out: LC50, SK-MEL-5, 48 h
[15] = system: HS 578T; assay: cells; details: Homo sapiens, 48 h; for GI50: HS 578T; for CC50: read-out: LC50
[16] = system: Non-small cell lung cancer; assay: cells; details: Homo sapiens; for GI50: read-out: MG_MID GI50; for CC50: read-out: MG_MID LC50
[17] = system: Renal Cancer; assay: cells; details: Homo sapiens; for GI50: read-out: MG_MID GI50; for CC50: read-out: MG_MID LC50
[18] = system: NCI-H322M; assay: NCI-60 SRB screen; details: 48 h; for GI50 / CC50: Homo sapiens; for CC50: read-out: LC50, NCI-H322M, 48 h
[19] = system: U251; assay: NCI-60 SRB screen; details: for GI50 / CC50: Homo sapiens, U-251, 48 h; for GI50 / TGI: U251, 48 h; for CC50: read-out: LC50, U251, 48 h
[20] = system: OVCAR-5; assay: NCI-60 SRB screen; details: OVCAR-5, 48 h; for GI50: Homo sapiens
[21] = system: MDA-MB-468; assay: NCI-60 SRB screen; details: MDA-MB-468, 48 h; for GI50 / CC50: Homo sapiens; for CC50: read-out: LC50, MDA-MB-468, 48 h

SMILES: O=C(O)CCN1C(=O)/C(=C/C=C/c2ccc([N+](=O)[O-])o2)SC1=S [12b, 3-((Z)-5-((E)-3-(5-Nitrofuran-2-yl)allylidene)-4-oxo-2-thioxothiazolidin-3-yl)propanoic acid]
IC50 [1]: 6.66 µM | IC50 [2]: 1.82 µM | TGI [3]: 2.73 µM | TGI [4]: 2.56 µM | TGI [5]: 3.57 µM | TGI [6]: 3.18 µM | TGI [7]: 3.79 µM | TGI [8]: 3.81 µM | TGI [9]: 10.6 µM | TGI [10]: 2.88 µM | MG_MID TGI [11]: 2.52 µM | MG_MID TGI [12]: 7.75 µM | GI50 [13]: 0.3 µM | GI50 [14]: 1.03 µM | CC50 [14]: 4.87 µM | GI50 [15]: 1.45 µM | CC50 [15]: > 100 µM | GI50 [16]: 2.59 µM | CC50 [16]: 25.9 µM | GI50 [17]: 3.05 µM | CC50 [17]: 11.9 µM | TGI [18]: 19.8 µM | GI50 [18]: 7.06 µM | CC50 [18]: 44.7 µM | GI50 [19]: 1.07 µM | CC50 [19]: 5.53 µM | TGI [19]: 2.43 µM | GI50 [20]: 1.99 µM | TGI [20]: 3.70 µM | GI50 [21]: 0.66 µM | CC50 [21]: 5.71 µM | TGI [21]: 2.14 µM

IC50 [1]: 6.61 µM | IC50 [2]: 5.56 µM
SMILES: CC(C(=O)O)N1C(=O)/C(=C/C=C/c2ccc([N+](=O)[O-])o2)SC1=S (stereo not shown) [2b, 2-((Z)-5-((E)-3-(5-Nitrofuran-2-yl)allylidene)-4-oxo-2-thioxothiazolidin-3-yl)propanoic acid]

SMILES: CCCC(C(=O)O)N1C(=O)/C(=C/C=C/c2ccc([N+](=O)[O-])o2)SC1=S (stereo not shown) [4b, 2-((Z)-5-((E)-3-(5-Nitrofuran-2-yl)allylidene)-4-oxo-2-thioxothiazolidin-3-yl)pentanoic acid]
IC50 [1]: 6.13 µM | IC50 [2]: 3.66 µM | TGI [3]: 14.5 µM | TGI [4]: 14.4 µM | TGI [5]: 3.90 µM | TGI [6]: 4.45 µM | TGI [7]: 19.1 µM | TGI [8]: 8.16 µM | TGI [9]: 6.42 µM | TGI [10]: 3.37 µM | MG_MID TGI [11]: 9.43 µM | MG_MID TGI [12]: 6.56 µM | GI50 [13]: 1.86 µM | CC50 ([13]; read-out: LC50): > 100 µM | GI50 [14]: 1.47 µM | CC50 [14]: 5.31 µM | GI50 [15]: 1.87 µM | CC50 [15]: > 100 µM | GI50 [16]: 2.37 µM | CC50 [16]: 29.3 µM | GI50 [17]: 2.25 µM | CC50 [17]: 18.5 µM | TGI [18]: 14.2 µM | GI50 [18]: 3.72 µM | CC50 [18]: 38.1 µM | GI50 [19]: 1.69 µM | CC50 [19]: 6.7 µM | TGI [19]: 3.37 µM | GI50 [20]: 1.89 µM | TGI [20]: 4.32 µM | GI50 [21]: 1.57 µM | CC50 [21]: 5.92 µM | TGI [21]: 3.05 µM
